# Source: US20160235807A1, “AGONISTS OF GUANYLATE CYCLASE USEFUL FOR DOWNREGULATION OF PRO-INFLAMMATORY CYTOKINES” (SYNERGY PHARMACEUTICALS, INC., priority 2013, published 2016)
# Bridge positions count the residues as written; N and C are the ends. Square brackets hold non-standard residues; d marks the D form. Peptide text beside a SMILES is read from it.
# Legend:
# GC-C Receptor [1] = target: T1, GC-C Receptor (Homo sapiens, UniProt P25092); experiment: cGMP stimulation assay in T84 cells in the presence of zaprinast (Example 2); assay type: cell-based
# T1 construct: endogenous in cells; host or cells: T84 human colon carcinoma cells
# T1 sequence (P25092 24-1073): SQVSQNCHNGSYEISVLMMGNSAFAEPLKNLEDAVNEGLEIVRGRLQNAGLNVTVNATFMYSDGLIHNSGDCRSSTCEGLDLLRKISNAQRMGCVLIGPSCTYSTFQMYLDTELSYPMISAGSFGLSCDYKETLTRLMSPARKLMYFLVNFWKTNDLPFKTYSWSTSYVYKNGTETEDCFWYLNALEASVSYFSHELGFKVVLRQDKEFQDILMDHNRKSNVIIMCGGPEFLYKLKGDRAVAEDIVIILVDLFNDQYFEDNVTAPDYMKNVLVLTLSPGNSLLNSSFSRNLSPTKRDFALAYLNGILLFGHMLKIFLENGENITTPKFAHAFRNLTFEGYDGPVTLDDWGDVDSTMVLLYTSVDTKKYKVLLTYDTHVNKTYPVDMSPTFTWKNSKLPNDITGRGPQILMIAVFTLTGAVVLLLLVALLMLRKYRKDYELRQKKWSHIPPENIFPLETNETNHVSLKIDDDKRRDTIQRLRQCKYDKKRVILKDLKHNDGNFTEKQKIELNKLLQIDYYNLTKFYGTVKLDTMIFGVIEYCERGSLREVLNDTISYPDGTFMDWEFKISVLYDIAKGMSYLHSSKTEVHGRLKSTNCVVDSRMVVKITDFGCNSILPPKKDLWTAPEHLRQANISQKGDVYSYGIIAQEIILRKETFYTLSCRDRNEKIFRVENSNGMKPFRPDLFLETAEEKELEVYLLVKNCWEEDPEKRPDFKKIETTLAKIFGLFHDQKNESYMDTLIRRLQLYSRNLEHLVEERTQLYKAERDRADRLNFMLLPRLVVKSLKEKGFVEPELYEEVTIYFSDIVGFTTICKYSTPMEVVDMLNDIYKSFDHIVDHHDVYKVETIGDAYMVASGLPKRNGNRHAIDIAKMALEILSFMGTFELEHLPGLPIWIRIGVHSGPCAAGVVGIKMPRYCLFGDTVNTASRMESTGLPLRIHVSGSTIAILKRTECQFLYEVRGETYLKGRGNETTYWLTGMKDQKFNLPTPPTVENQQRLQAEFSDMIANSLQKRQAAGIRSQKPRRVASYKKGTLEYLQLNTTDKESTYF
# Experimental: Confluent monolayers of T84 cells in 24-well plates were pre-incubated with indicated amounts of SP-333 in the presence of zaprinast for 30 minutes at 37° C. Subsequently, the reaction was terminated by 3% perchloric acid and neutralized with 0.5N NaOH. Intracellular cGMP levels were determined in lysates using a ELISA kit (Cayman Chemical). All samples were analyzed in duplicates. Total protein was quantitated using Pierce BCA protein assay (Thermo Fisher Scientific).
# GC-C Receptor [2] = target: T1, GC-C Receptor; experiment: Cyclic GMP stimulation assay in T84 cells; assay type: cell-based
# Experimental: The potency of test peptides to stimulate cGMP synthesis in T84 cells was assayed by a published procedure (Shailubhai et al. 2000). Briefly, confluent monolayers of T-84 cells in 24-well plates were washed twice with 250 μl of DMEM containing 50 mM HEPES (pH 7.4), pre-incubated at 37° C. for 10 min with 250 μl of DMEM containing 50 mM HEPES (pH 7.4) and 1 mM isobutylmethylxanthine (IBMX), followed by incubation with test peptide for 30 min. The medium was aspirated, and the reaction was terminated by the addition of 3% perchloric acid. Following centrifugation, and neutralization with 0.1 N NaOH, the resulting supernatant was used directly for measurements of intracellular cGMP using an ELISA kit (Caymen Chemical, Ann Arbor, Mich.). Results are expressed as pmol of cGMP/mg of protein in the cell extracts.
# T84 cells = experiment: Quantitative RT-PCR for transcripts in T84 cells; assay type: cell-based, human
compound,measurement,setting,value
"CC(C)C[C@@H]1NC(=O)[C@H](CCC(=O)O)NC(=O)[C@@H](NC(=O)[C@H](CCC(=O)O)NC(=O)[C@H](CC(=O)O)NC(=O)[C@H](N)CC(N)=O)CSSC[C@@H]2NC(=O)[C@H](C)NC(=O)[C@H](C(C)C)NC(=O)[C@H](CC(N)=O)NC(=O)[C@H](C(C)C)NC(=O)[C@H](CSSC[C@@H](C(=O)N[C@H](CC(C)C)C(=O)O)NC(=O)CNC(=O)[C@H]([C@@H](C)O)NC2=O)NC1=O [SP-333, dAsn^1-Asp^2-Glu^3-Cys^4-Glu^5-Leu^6-Cys^7-Val^8-Asn^9-Val^10-Ala^11-Cys^12-Thr^13-Gly^14-Cys^15-dLeu^16] (H-[dN]DECELCVNVACTGC[dL]-OH; disulfide 4-12, 7-15; N-terminus and C-terminus assumed)",concentration at which cGMP synthesis approached a plateau,GC-C Receptor [1]; FIG. 14,1 µM
same,cGMP production,GC-C Receptor [1]; FIG. 15,enhanced
same,potency to stimulate cGMP in T84 cells,GC-C Receptor [2],dose dependent increase in cGMP
same,EC50,"GC-C Receptor [2]; 30 min with peptide, 1 mM IBMX",283 nM
same,transcripts of cell division cycle 25a (putative c-Myc target gene),T84 cells,reduced
same,transcripts of cyclin D1 (putative c-Myc target gene),T84 cells,reduced
same,transcripts of p53 (putative c-Myc target gene),T84 cells,reduced
same,Expression of Protein Kinase G I and II Transcripts,T84 cells; FIG. 15,enhanced
same,decrease in Cyclin D1 expression,T84 cells; FIG. 17,58%
same,decrease in Survivin expression,T84 cells; FIG. 17,50%
same,decrease in c-Myc expression,T84 cells; FIG. 17,92%
same,expression of β-Catenin,T84 cells; FIG. 17,no effect
same,decrease in c-Src expression,"T84 cells; compared to untreated cells, FIG. 16",52%
